Experimental data taken from patent US20230324370A1, “A DNA-Based Voltmeter for Organelles” (The University of Chicago, priority 2020, published 2023).
Each block holds one compound with its values, some of them ahead of it.

Assays:
[1] = system: cytosolic Ca^2+ in COS-7 cells; test: Cytosolic calcium imaging with Fluo-4 AM upon ATP addition; format: cell-based, Monkey; conditions: COS-7, 100 µM ATP
lysosomes of COS-7 cells = test: Time lapse imaging of lysosomal membrane potential upon ATP addition; format: cell-based, Monkey; conditions: COS-7, 100 µM ATP
Source text: Time lapse Imaging: […] Image acquisition was briefly paused at indicated time for addition of chemicals (ML-SA1, Baf-A1, ATP or DMSO) to cells. To minimize bleaching, time-lapse imaging was done at single focal plane. Z-drift compensator module from IX83 was applied to minimize out of focus drift during time lapse imaging. The extracellular ATP induced cytosolic calcium increase was imaged by labeling COS-7 cells with cell permeable calcium sensitive dye Fluo4-AM ester. Time-lapse imaging of Fluo-4 labeled COS-7 cells were acquired using a 480/20 band pass excitation filter, 520/40 band pass emission filter and 89016 dichroic, at 1 s interval for 20 mins.

[2] = system: lysosomes in HEK 293T cells; test: In situ lysosomal membrane potential measurement with Voltair^IM, with and without pharmacological treatment; format: cell-based, Human; conditions: for ΔVLys: HEK 293T
early endosomes = test: Time-lapse imaging of early endosome membrane potential upon TRPML1 activation; format: cell-based; conditions: ML-SA1
[3] = system: trans Golgi network in HEK 293 cells expressing scFv-furin; test: Organellar membrane potential measurement, trans Golgi network; format: cell-based, Human; conditions: V-ATPase inhibition (bafilomycin A1 500 nM per FIG. 4)
[4] = system: recycling endosomes in HEK 293T cells; test: Organellar membrane potential measurement, recycling endosomes; format: cell-based, Human; conditions: 500 nM bafilomycin A1
[5] = system: endogenous scavenger receptor; test: Competition assay of DNA nanodevice uptake in cell types expressing endogenous scavenger receptor; format: cell-based; conditions: THP-1, BHK-21, HDF, RAW 264.7, T-47D, COS-7
[6] = molecular target: T1, human macrophage scavenger receptor (hMSR1) (Homo sapiens, UniProt P21757); test: Competition assay of DNA device uptake with maleylated BSA; format: cell-based
T1 construct: expressed in transfected cells; host or cells: HEK 293T
T1 sequence (P21757 1-451): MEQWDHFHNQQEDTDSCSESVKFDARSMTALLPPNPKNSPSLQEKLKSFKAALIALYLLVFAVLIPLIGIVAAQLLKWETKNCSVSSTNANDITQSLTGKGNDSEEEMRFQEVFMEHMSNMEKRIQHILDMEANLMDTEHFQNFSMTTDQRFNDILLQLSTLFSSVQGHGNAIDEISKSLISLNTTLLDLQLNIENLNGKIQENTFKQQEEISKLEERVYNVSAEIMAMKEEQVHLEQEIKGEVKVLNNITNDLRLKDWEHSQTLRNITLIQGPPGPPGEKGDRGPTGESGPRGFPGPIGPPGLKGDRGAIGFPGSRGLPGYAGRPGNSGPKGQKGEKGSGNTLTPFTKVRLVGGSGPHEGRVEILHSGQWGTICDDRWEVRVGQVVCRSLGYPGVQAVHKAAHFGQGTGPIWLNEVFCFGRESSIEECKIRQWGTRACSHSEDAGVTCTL
Procedure: Competition assay: HEK 293T cells transfected with hMSR1-CFP were washed with 1X PBS, pH 7.4 prior to labeling with the DNA device. Cells were incubated with 20 µM maleylated BSA (mBSA) for 15 min, followed by a 20 min pulse of 500 nM DNA device and 20 µM mBSA to allow internalization by receptor mediated endocytosis. Control cells were washed and pulsed for 20 mins in 500 nM DNA device without mBSA. Cells were then washed three times with 1× PBS and chased for 30 mins in complete DMEM media. Complete media was replaced with Opti-MEM solution (Thermofisher) and imaged by widefield microscopy for quantification and confocal microscopy for representative images. Whole cell intensities in the Atto647N channel were quantified for cells expressing hMSR1-CFP observed in CFP channel. The mean intensity from three different experiments were normalized against the no mBSA control, for n~50 cells.

[7] = in the presence of Torin-1 and trans-ned-19 1 µM

Compound: Nc1ncnc2c1ncn2[C@@H]1O[C@H](COP(=O)(O)OP(=O)(O)OP(=O)(O)O)[C@@H](O)[C@H]1O [ATP]
time to maximum cytosolic Ca^2+ level after addition [1]: ~ 5 seconds | acute hyperpolarization of the lysosomal membrane (lysosomes of COS-7 cells): +75 mV | duration of lysosomal hyperpolarization (lysosomes of COS-7 cells): ~ 100 seconds | time from maximal cytosolic Ca^2+ elevation to lysosomal hyperpolarization (lysosomes of COS-7 cells): ~ 80 seconds

Compound: CC1CC(C)(C)N(C(=O)CN2C(=O)c3ccccc3C2=O)c2ccccc21 (stereo not shown) [ML-SA1]
ΔVLys ([2]; ML-SA1 20 µM, TRPML1 activator): 90 mV | membrane potential in early endosomes (VEE) upon treatment (early endosomes): stayed constant

Compound: O=c1[nH]c2cc(C(F)(F)F)ccc2n1-c1cc(C(F)(F)F)ccc1O [NS1619]
ΔVLys ([2]; ML-SA1 as well as BK channel agonist NS1619): 50 mV

Compound: CCC(=O)N1CCN(c2ccc(-n3c(=O)ccc4cnc5ccc(-c6cnc7ccccc7c6)cc5c43)cc2C(F)(F)F)CC1 [Torin-1]
reduction of VLys from the resting VLys ([2]; Torin-1 1 µM, mTORC1 inhibition): ~60 mV

Compound: CO/C1=C\C(C)=C\[C@@H](C)[C@@H](O)[C@@H](C)C/C(C)=C/C=C/[C@H](OC)[C@@H]([C@@H](C)[C@@H](O)[C@H](C)[C@@]2(O)C[C@@H](O)[C@H](C)[C@@H](C(C)C)O2)OC1=O [bafilomycin A1]
reduction of VLys from the resting membrane potential ([2]; bafilomycin A1 500 nM, V-ATPase inhibition): ~ 100 mV | membrane potential remaining across the TGN after V-ATPase inhibition [3]: +75 mV | change of VRE upon V-ATPase inhibition [4]: no change

Compound: COc1ccc([C@H]2N[C@H](C(=O)O)Cc3c2[nH]c2ccccc32)cc1CN1CCN(c2ccccc2F)CC1 [trans-ned-19]
VLys [2, 7]: +80 mV | ΔVLys due to TPC2 channel inhibition [2, 7]: 35 mV

effect on endocytosis of Voltair^PM ([6]; CFP-hMSR1 transfected HEK 293T, 30eq. mBSA, 500 nM Voltair^PM, 30 mins): blocks endocytosis | effect on uptake of Voltair^IM ([6]; HEK 293T cells expressing hMSR1-CFP): efficiently competed out
Compound: maleylated BSA: a strong ligand for scavenger receptors
effect on DNA nanodevice uptake [5]: decreases uptake
